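Interpolation was linear, between the two tested concentrations surrounding the appropriate level; five concentrations were tested over 48 hours in 96-well plates. GI50 marks 50% less growth. The concentration for full growth arrest is given as TGI.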
Legend:
Assay in all cases: NCI-60 cell line screen, 48 h
[1] = tested on: HL-60(TB) leukemia
[2] = tested on: EKVX NSCLC
[3] = tested on: U251 CNS
[4] = tested on: BT-549 breast
[5] = tested on: SK-MEL-5 melanoma
[6] = tested on: 786-0 renal
[7] = tested on: K-562 leukemia
[8] = tested on: OVCAR-5 ovarian
[9] = tested on: SK-OV-3 ovarian
[10] = tested on: SNB-19 CNS
[11] = tested on: UACC-62 melanoma
[12] = tested on: HCT-116 colon
[13] = tested on: CCRF-CEM leukemia
[14] = tested on: RXF 393 renal
[15] = tested on: HS 578T breast
[16] = tested on: CAKI-1 renal
[17] = tested on: HCT-15 colon
[18] = tested on: NCI-H226 lung
[19] = tested on: PC-3 prostate
[20] = tested on: HOP-62 NSCLC
[21] = tested on: A549 NSCLC
[22] = tested on: SF-295 CNS
[23] = tested on: MDA-MB-435
[24] = tested on: NCI/ADR-RES ovarian
[25] = tested on: MCF7 breast
[26] = tested on: TK-10 renal
[27] = tested on: M14 melanoma
[28] = tested on: UACC-257 melanoma
[29] = tested on: A498 renal
[30] = tested on: SF-268 CNS
[31] = tested on: SN12C renal
[32] = tested on: LOX IMVI melanoma
[33] = tested on: SK-MEL-28 melanoma
[34] = tested on: IGROV1 ovarian
[35] = tested on: NCI-H460 lung
[36] = tested on: MALME-3M melanoma
[37] = tested on: HCC-2998 colon
[38] = tested on: SR leukemia
[39] = tested on: SK-MEL-2 melanoma
[40] = tested on: OVCAR-3 ovarian
[41] = tested on: NCI-H23 lung
[42] = tested on: T-47D breast
[43] = tested on: NCI-H522 lung
[44] = tested on: SNB-75 CNS
[45] = tested on: HT29 colon
[46] = tested on: UO-31 renal
[47] = tested on: SW-620 colon
[48] = tested on: RPMI-8226 leukemia
[49] = tested on: DU-145 prostate
[50] = tested on: KM12 colon
[51] = tested on: SF-539 CNS
[52] = tested on: ACHN renal
[53] = tested on: OVCAR-8 ovarian
[54] = tested on: COLO 205 colon
[55] = tested on: OVCAR-4 ovarian
[56] = tested on: HOP-92 NSCLC
[57] = tested on: MDA-MB-231 breast
[58] = tested on: MOLT-4 leukemia

`O=C1/C(=C/c2ccc(Cl)c(Cl)c2)CN(C(=O)C(Cl)Cl)C/C1=C\c1ccc(Cl)c(Cl)c1` was tested, and the GI50 [1] was 198 nM, the TGI [1] was 1050 nM and the GI50 [2] was 223 nM. It also gave a TGI [2] of 757 nM, a GI50 [3] of 37.1 nM and a TGI [3] of 153 nM. For the same compound, the GI50 [4] was 228 nM, the TGI [4] was 701 nM and the GI50 [5] was 196 nM. It also gave a TGI [5] of 418 nM, a GI50 [6] of 151 nM and a TGI [6] of 306 nM. It also gave a GI50 [7] of 36.9 nM, a TGI [7] greater than 36200 nM and a GI50 [8] of 204 nM. For the same compound, the TGI [8] was 545 nM, the GI50 [9] was 558 nM and the TGI [9] was 1820 nM. It also gave a GI50 [10] of 110 nM, a TGI [10] of 306 nM and a GI50 [11] of 197 nM. For the same compound, the TGI [11] was 459 nM, the GI50 [12] was 31.5 nM and the TGI [12] was 120 nM. For the same compound, the GI50 [13] was 37.2 nM, the TGI [13] was greater than 100000 nM and the GI50 [14] was 164 nM. The TGI [14] was 337 nM, the GI50 [15] was 355 nM and the TGI [15] was 3790 nM. The GI50 [16] was 244 nM, the TGI [16] was 826 nM and the GI50 [17] was 33 nM. It also gave a TGI [17] of 802 nM, a GI50 [18] of 192 nM and a TGI [18] of 366 nM. It also gave a GI50 [19] of 73.7 nM, a TGI [19] of 712 nM and a GI50 [20] of 271 nM. For the same compound, the TGI [20] was 972 nM, the GI50 [21] was 220 nM and the TGI [21] was 908 nM. It also gave a GI50 [22] of 154 nM, a TGI [22] of 704 nM and a GI50 [23] of 222 nM. It also gave a TGI [23] of 546 nM, a GI50 [24] of 107 nM and a TGI [24] greater than 100000 nM. It also gave a GI50 [25] of 37 nM, a TGI [25] of 1370 nM and a GI50 [26] of 353 nM. The TGI [26] was 1230 nM, the GI50 [27] was 206 nM and the TGI [27] was 587 nM. For the same compound, the GI50 [28] was 666 nM, the TGI [28] was 2240 nM and the GI50 [29] was 216 nM. It also gave a TGI [29] of 664 nM, a GI50 [30] of 243 nM and a TGI [30] of 1140 nM. It also gave a GI50 [31] of 139 nM, a TGI [31] of 461 nM and a GI50 [32] of 36.2 nM. It also gave a TGI [32] of 136 nM, a GI50 [33] of 252 nM and a TGI [33] of 634 nM. The GI50 [34] was 103 nM, the TGI [34] was 306 nM and the GI50 [35] was 261 nM. For the same compound, the TGI [35] was 935 nM, the GI50 [36] was 237 nM and the TGI [36] was 669 nM. For the same compound, the GI50 [37] was 181 nM, the TGI [37] was 355 nM and the GI50 [38] was 26.7 nM. The TGI [38] was greater than 100000 nM, the GI50 [39] was 801 nM and the TGI [39] was 3140 nM. It also gave a GI50 [40] of 57.1 nM, a TGI [40] of 237 nM and a GI50 [41] of 136 nM. The TGI [41] was 567 nM, the GI50 [42] was 256 nM and the TGI [42] was 1770 nM. The GI50 [43] was 270 nM, the TGI [43] was 1200 nM and the GI50 [44] was 174 nM. It also gave a TGI [44] of 484 nM, a GI50 [45] of 71 nM and a TGI [45] of 2070 nM. It also gave a GI50 [46] of 133 nM, a TGI [46] of 267 nM and a GI50 [47] of 36.4 nM. It also gave a TGI [47] of 196 nM, a GI50 [48] of 28.5 nM and a TGI [48] of 485 nM. For the same compound, the GI50 [49] was 369 nM, the TGI [49] was 1410 nM and the GI50 [50] was 160 nM. The TGI [50] was 587 nM, the GI50 [51] was 184 nM and the TGI [51] was 444 nM. The GI50 [52] was 179 nM, the TGI [52] was 474 nM and the GI50 [53] was 50.5 nM. It also gave a TGI [53] of 1510 nM, a GI50 [54] of 178 nM and a TGI [54] of 638 nM. The GI50 [55] was 74.3 nM, the TGI [55] was 1490 nM and the GI50 [56] was 190 nM. It also gave a TGI [56] of 541 nM, a GI50 [57] of 237 nM and a TGI [57] of 1160 nM. It also gave a GI50 [58] of 98.5 nM and a TGI [58] greater than 100000 nM.
